Experimental data taken from patent US11826358B2, “Locally-induced adipose tissue browning by microneedle patch for obesity treatment” (NORTH CAROLINA STATE UNIVERSITY, priority 2017, dated 2023).

What was measured:
[1] = tested on: PgKO-PPARγ1; experiment: Adipogenesis in PgKO-PPARγ1 MEF adipocyte model (aP2, Perilipin Q-PCR); assay type: cell-based, mouse
[2] = tested on: 3T3-L1 adipocytes; experiment: Browning in fully differentiated 3T3-L1 adipocytes (Q-PCR); assay type: cell-based
From the text: To validate the efficiency of Rosi NPs, an in vitro adipocyte model PgKO-PPARγ1 was used in which the reconstitution of a shorter form of PPARγ (γ1) in Ppar^−/− mouse embryonic fibroblast (MEF) rescues adipocyte differentiation only in the presence of exogenous Thiazolidinedione class of ligand (e.g. Rosi). […] In addition to adipogenic potential, the browning capacity of Rosi NPs was also compared. In fully differentiated 3T3-L1 adipocytes, Rosi NPs behaved the same as nude Rosi to up-regulate brown adipocyte markers Elovl3 and Cidea as well as to repress white adipocyte genes Resistin and Adipsin (FIG. 2g). Therefore, the disclosed nanoparticalization strategy can sustain a constant release of Rosi at physiological levels of glucose without affecting its efficiency.
RNA was extracted from tissues or cells by combining TriZol reagent and NucleoSpin RNA kit with DNase I digestion (Macherey-Nagel), following the manufacturer's instructions. 1 μg total RNA was used to synthesize cDNA by using the High-capacity cDNA Reverse Transcription kit (Applied Biosystems). Quantitative real-time PCR (Q-PCR) were performed on a Bio-Rad CFX96 Real-Time PCR platform by using the GoTaq qPCR Master Mix (Promega). Relative gene expressions were calculated by using ΔΔCt method with Cyclophilin A (cultured cells) or RPL23 (tissues) as the reference gene.

With CN(CCOc1ccc(CC2SC(=O)NC2=O)cc1)c1ccccn1 (racemic) [nude Rosi, (RS)-5-[4-(2-[methyl(pyridin-2-yl)amino]ethoxy)benzyl]thiazolidine-2,4-dione] the “adipocyte formation (induction of aP2 and Perilipin)” value [1] was “induce adipocyte formation”, the “brown adipocyte markers Elovl3 and Cidea expression” value [2] was “up-regulate” and the “white adipocyte genes Resistin and Adipsin expression” value [2] was “repress”.
